As a reminder, the IC50 is the midpoint of a concentration-inhibition curve.

Read-outs that look alike come from different tables or passages of the source. Some results are limits rather than exact numbers.

Results on five compounds are retold here after patent publication US20110251189A1, “HYPOXIA TARGETED COMPOUNDS FOR CANCER DIAGNOSIS AND THERAPY” (priority 2008, published 2011).

The test system of assay [1] is HepG2 cells. Kind of assay: Survival (MTT) cytotoxicity assay in HepG2 cells under normoxic or hypoxic conditions. Conditions: for IC50: Homo sapiens, MTT assay; for toxicity in hypoxic versus normoxic exposure: transient exposure to hypoxic conditions. It counts as cell-based. On the procedure: Cell Culture and Cytotoxicity Assays. HepG2 cells (passage 2 from frozen stock) were cultured in RPMI 1640 containing 10% FBS. The tests were performed in 96-well plates with stock cells split equally into duplicate plates—one for normoxic and the other for hypoxic conditions. The drug(s) or vehicle (0.1% DMSO) was applied to the cells in log-exponential growth phase under normoxic conditions (5% CO2; 37 C) for 48 hours or under normoxic conditions (22 hr) followed by 2 hr hypoxic conditions (1% O2, 5% CO2, 94% N2 at 37° C.) then followed by reoxygenation for 24 hrs. For the hypoxia experiments, a glove chamber with two-way pressure value and one-way N2 inflow was used. Hypoxia conditions were met using methylene blue dye indicator (i.e. 0.015% methylene blue, 6% dextrose, 6 mM NaOH) which correlated with the O2 pressure in the glove box when measured continuously with a Clark-type electrode.^13
At 48 hrs, a tetrazolium component (MTT) assay (Promega, Madison, Wis.; Cell Titer 96 Non-Radioactive Cell Proliferation Assay) was performed following an established protocol in the laboratory. Since these assays depend on mitochondrial function, which may be affected by the state of oxygenation, clonogenic assays to verify survival function were also performed. It is important to note that the data presented for the MTT assay normalizes the OD595 for the drug treated wells (minus background) to its own vehicle treated well(s) under either normoxic or hypoxic conditions. These values are then plotted as a percentage (×100%) surviving 48 hrs of drug(s) or vehicle treatment under the said condition. These analyses have also been performed previously for other hypoxia studies.^14,15
(In general: Formazan colour is commonly taken as a measure of viable cells.)

Assay [2] relates to HepG2 cells. Kind of assay: HepG2 clonogenic assay (colony count) under normoxic or hypoxic conditions. Conditions: for cells dead / colonies dead: hypoxic conditions; for cells dead / cells dead compared with controls: 50 μM; for cells dead: p<0.00001 vs control treated hypoxic conditions; for colonies dead / colonies alive relative to controls: ~10 μM; for colonies dead: p<0.001 vs control treated cells; for cells dead compared with controls / colonies alive relative to controls: normoxic cells; for colonies alive relative to controls: FIG. 5. The assay is classed as cell-based. Here is the method:
In the HepG2 clonogenic assays, 3.5×10^3 per well were seeded in 6-well plates using RPMI1640 and 10% FBS. After 24 hrs of growth at 37° C., the cells were exposed to vehicle or drug(s). After 10 days incubation with drug(s) or control, the wells were washed with PBS twice, then fixed in 10% acetic acid for 10 min, then stained with crystal violet for 10 min, and finally rinsed with distilled water at room temperature. The colonies (>50 μm likely representing >50 cells) were then visually counted in randomly chosen 1-mm×1-mm grid repeated three times. Statistical analyses of the mean number of colonies were performed by using the Mann-Whitney t test, with significant differences established as P<0.05 as previously published by the laboratory.^16 For the hypoxia conditions, after 24 hr growth in normoxic conditions as above, the vehicle or drug(s) treated cells were exposed to hypoxic environment (1% O2, 5% CO2, 94% N2 at 37° C.) for 5 hrs, followed by re-oxygenation (5% CO2; 37° C.) for the remaining 10 days.

Setting [3] is: 22 hr normoxia, 2 hr hypoxia (1% O2), reoxygenation 24 hrs, read-out: IC50 (hypoxia).
The mark [4] stands for this setting: normoxic conditions 48 hours, read-out: IC50 (normoxia).

Turning to `c1ccc(C2=Nc3ccccc3OC2)cc1` [Compound 3], the IC50 in assay [1] (setting [3]) came to 10.8 ± 1.4 µM. Further, the IC50 in assay [1] (setting [4]) turned out to be 87 ± 1.3 µM. The “toxicity in hypoxic versus normoxic exposure” value in assay [1] is “significantly more toxic to hypoxic exposure than to normoxic exposure”. Moreover, in assay [2], the cells dead is recorded as around 98%, the colonies dead is listed as around 71%, the “cells dead compared with controls” value is on record as around 12% and the “colonies alive relative to controls” value is on record as around 105%.

For `O=[N+]([O-])c1ccc2c(c1)N=C(c1ccc(Cl)cc1)CO2` [Compound 7], the IC50 in assay [1] (setting [3]) is 20 ± 1.2 µM. Besides, in assay [1] (setting [4]), the IC50 was 78 ± 1.4 µM. Also, the “toxicity in hypoxic versus normoxic exposure” value in assay [1] is given as “significantly more toxic to hypoxic exposure than to normoxic exposure”. Besides, in assay [2], the cells dead is around 83%, the colonies dead is around 28%, the “cells dead compared with controls” value is recorded as around 11% and the “colonies alive relative to controls” value was around 110%.

Consider `Clc1ccc(C2=Nc3ccc(Cl)cc3OC2)cc1` [Compound B47.2], for which the IC50 in assay [1] (setting [3]) stood at 28 ± 1.6 µM; in assay [1] (setting [4]), 88 ± 2.4 µM.

Regarding `Cc1ccc2c(c1)N=C(c1ccc(Cl)cc1)CO2` [Compound B47.4], the IC50 in assay [1] (setting [3]) is 87 ± 1.8 µM; in assay [1] (setting [4]) it was above 600 µM.

`Clc1ccc2c(c1)N=C(c1ccccc1)CO2` [Compound 4]: the IC50 in assay [1] (setting [3]) was determined as 30 ± 2.4 µM; in assay [1] (setting [4]) it was 78 ± 1.2 µM.
